From patent US20100152047A1, “Piperazine Compounds Whith a Herbicidal Action” (BASF SE, priority 2007, published 2010)

Assays:
Format in all cases: in vivo
[1] = test system: AMARE (Amaranthus retoflexus, redroot pigweed); assay: greenhouse herbicidal test, post-emergence, AMARE; settings: post-emergence method, application rate 0.5 kg/ha, scale from 0 to 100
Text: (§1) The culture containers used were plastic flowerpots containing loamy sand with approximately 3.0% of humus as the substrate. The seeds of the test plants were sown separately for each species.
(§2) For the post-emergence treatment, the test plants were first grown to a height of 3 to 15 cm, depending on the plant habit, and only then treated with the active ingredients which had been suspended or emulsified in water. For this purpose, the test plants were either sown directly and grown in the same containers, or they were first grown separately as seedlings and transplanted into the test containers a few days prior to treatment.
(§3) Depending on the species, the plants were kept at 10-25° C. or 20-35° C. The test period extended over 2 to 4 weeks. During this time, the plants were tended, and their response to the individual treatments was evaluated.
(§4) Evaluation was carried out using a scale from 0 to 100. 100 means no emergence of the plants, or complete destruction of at least the aerial moieties, and 0 means no damage, or normal course of growth. A good herbicidal activity is given at values of at least 70 and a very good herbicidal activity is given at values of at least 85.
(§5) The plants used in the greenhouse experiments belonged to the following species: […]

[2] = test system: SETVI (Setaria viridis, green foxtail); assay: greenhouse herbicidal test, post-emergence, SETVI; settings: post-emergence method, application rate 0.5 kg/ha, scale from 0 to 100
Text: as §1, §2, §3, §4, §5

[3] = test system: CHEAL (Chenopodium album, common lambsquarters); assay: greenhouse herbicidal test, post-emergence, CHEAL; settings: post-emergence method, application rate 0.5 kg/ha, scale from 0 to 100
Text: as §1, §2, §3, §4, §5

[4] = test system: LOLMU (Lolium multiflorum, Italian ryegrass); assay: greenhouse herbicidal test, post-emergence, LOLMU; settings: post-emergence method, application rate 0.5 kg/ha, scale from 0 to 100
Text: as §1, §2, §3, §4, §5

[5] = test system: CHEAL (Chenopodium album, common lambsquarters); assay: greenhouse herbicidal test, pre-emergence, CHEAL; settings: pre-emergence method, application rate 0.5 kg/ha, scale from 0 to 100
Text: as §1
(§6) For the pre-emergence treatment, the active ingredients, which had been suspended or emulsified in water, were applied directly after sowing by means of finely distributing nozzles. The containers were irrigated gently to promote germination and growth and subsequently covered with transparent plastic hoods until the plants had rooted. This cover caused uniform germination of the test plants, unless this has been impaired by the active ingredients.
as §3, §4, §5

[6] = test system: SETVI (Setaria viridis, green foxtail); assay: greenhouse herbicidal test, pre-emergence, SETVI; settings: pre-emergence method, application rate 0.5 kg/ha, scale from 0 to 100
Text: as §1, §6, §3, §4, §5

[7] = test system: APESV (Apera spica-venti, windgrass); assay: greenhouse herbicidal test, post-emergence, APESV; settings: post-emergence method, application rate 0.5 kg/ha, scale from 0 to 100
Text: as §1, §2, §3, §4, §5

[8] = test system: GALAP (Galium aparine, catchweed bedstraw); assay: greenhouse herbicidal test, post-emergence, GALAP; settings: post-emergence method, application rate 0.5 kg/ha, scale from 0 to 100
Text: as §1, §2, §3, §4, §5

| SMILES | herbicidal activity against AMARE [1] | herbicidal activity against SETVI [2] | herbicidal activity against CHEAL [3] | further results |
| --- | --- | --- | --- | --- |
| CN1C(=O)C(C)(Cc2ccccc2)N(C)C(=O)C1=Cc1ccccc1[N+](=O)[O-] (mixture of isomers) [Example 26] | good to very good | good to very good | – | – |
| CN1C(=O)C(C)(Cc2ccccc2)N(C)C(=O)C1=Cc1ccccc1C#N (racemic) [Example 7] | good to very good | good to very good | good to very good | – |
| CN1C(=O)C(C)(Cc2ccccc2)N(C)C(=O)C1=Cc1ccccc1Br (racemic) [Example 10] | – | good to very good | – | herbicidal activity against LOLMU [4]: good (A good herbicidal activity is given at values of at least 70) |
| CN1C(=O)C(C)(Cc2ccccc2)N(C)C(=O)C1=Cc1c(Cl)cccc1Br (racemic) [Example 11] | good to very good | good to very good | good to very good | – |
| CN1C(=O)C(C)(Cc2ccccc2)N(C)C(=O)C1=Cc1c(F)cccc1C#N (racemic) [Example 12] | good to very good | good to very good | good to very good | – |
| CN1C(=O)C(C)(Cc2ccccc2)N(C)C(=O)C1=Cc1c(Cl)cccc1C#N (racemic) [Example 13] | good to very good | good to very good | good to very good | – |
| COc1cccc(C#N)c1C=C1C(=O)N(C)C(C)(Cc2ccccc2)C(=O)N1C (racemic) [Example 14] | – | good to very good | good to very good | – |
| Cc1cccc(C#N)c1C=C1C(=O)N(C)C(C)(Cc2ccccc2)C(=O)N1C (racemic) [Example 16] | good to very good | good to very good | good to very good | – |
| CN1C(=O)C(C)(Cc2ccccc2)N(C)C(=O)C1=Cc1c(C#N)ccc(F)c1F (racemic) [Example 18] | good to very good | good to very good | good to very good | – |
| CC(C)C1(Cc2ccccc2)C(=O)N(C)C(=Cc2ccccc2C#N)C(=O)N1C (racemic) [Example 24] | good to very good | – | – | – |
| CN1C(=O)C(CO)(Cc2ccccc2)N(C)C(=O)C1=Cc1ccccc1C#N (racemic) [Example 25] | – | good to very good | good to very good | herbicidal activity against CHEAL [5]: good (A good herbicidal activity is given at values of at least 70); herbicidal activity against SETVI [6]: good (A good herbicidal activity is given at values of at least 70) |
| CCc1cccc(C#N)c1C=C1C(=O)N(C)C(C)(Cc2ccccc2)C(=O)N1C (racemic) [Example 29] | – | good to very good | – | – |
| CN1C(=O)C(C)(Cc2ccccc2)NC(=O)C1=Cc1ccccc1C#N (racemic) [Example 39] | good to very good | good to very good | good to very good | – |
| COc1cccc(Br)c1C=C1C(=O)N(C)C(C)(Cc2ccccc2)C(=O)N1C (racemic) [Example 43] | good to very good | – | – | herbicidal activity against APESV [7]: good (A good herbicidal activity is given at values of at least 70) |
| CN1C(=O)C(C)(Cc2ccccc2)NC(=O)C1=Cc1ccccc1[N+](=O)[O-] (racemic) [Example 44] | good to very good | good to very good | – | – |
| CCN1C(=O)C(=Cc2ccccc2[N+](=O)[O-])N(C)C(=O)C1(C)Cc1ccccc1 (racemic) [Example 47] | good to very good | good to very good | – | – |
| Cc1cccc([N+](=O)[O-])c1C=C1C(=O)N(C)C(C)(Cc2ccccc2)C(=O)N1C (racemic) [Example 56] | good to very good | good to very good | – | – |
| CN1C(=O)C(C)(Cc2ccc(Cl)cc2)N(C)C(=O)C1=Cc1ccccc1C#N (racemic) [Example 137] | – | – | – | herbicidal activity against GALAP [8]: good (A good herbicidal activity is given at values of at least 70) |
| CN1C(=O)C(C)(Cc2ccc(F)cc2)N(C)C(=O)C1=Cc1ccccc1C#N (racemic) [Example 138] | good to very good | good to very good | – | – |
| CCC1(Cc2ccccc2)C(=O)N(C)C(=Cc2ccccc2C#N)C(=O)N1C (stereo not shown) [Example 3, 2-(5-Benzyl-5-ethyl-1,4-dimethyl-3,6-dioxopiperazin-2-ylidenemethyl)-benzonitrile] | good to very good | – | good to very good | – |
